Data: PMC2606048 (Bioorganic & medicinal chemistry letters, 2008)
Where two headings read alike, the source gives them in different places.

Key:
[1] = test system: murine leukemia (L1210) cells; assay: Inhibition of proliferation of murine leukemia; format: cell-based
[2] = test system: K562 (human chronic myelogenous leukemia) cells; assay: Flow cytometric analysis of cell cycle distribution in K562 cells; format: cell-based; conditions: 24 h, compound at its 24 h IC50, propidium iodide
tubulin = assay: Inhibition of tubulin polymerization; conditions: read-out: Tubulin assembly IC50 ± SD; Tubulin was at 10 μM
[3] = test system: human T-lymphocyte Molt4/C8 cells; assay: Inhibition of proliferation of human T-lymphocyte Molt4/C8 cells; format: cell-based
[4] = test system: K562 (human chronic myelogenous leukemia) cells; assay: K562 cell growth inhibition after 24 h; format: cell-based; conditions: read-out: IC50 determined for 24 h of growth
[5] = test system: human T-lymphocyte CEM cells; assay: Inhibition of proliferation of human T-lymphocyte CEM cells; format: cell-based
[6] = test system: L1210, FM3A, Molt/4 and CEM cells; assay: Antiproliferative activity summarised over the panel of four cancer cell lines; format: cell-based, murine and human; conditions: for IC50: read-out: IC50 (span over the four cell lines); for Antiproliferative activity (in words): four cell lines
[7] = test system: murine mammary carcinoma (FM3A) cells; assay: Inhibition of proliferation of murine mammary carcinoma; format: cell-based

With “2-amino-3-(3,4,5-trimethoxybenzoyl)-6-methoxycarbonyl-4,5,6,7-tetrahydrothieno[b]pyridine [Compound 4f]” the “fold more potent than 4g” value ([1]; L1210 cells) was 4 fold, the “Effect on cell cycle distribution” value [2] was “marked increase in the percentage of cells blocked in the G2-M phase” and the IC50 (tubulin) was 600 ± 20 nM. For the same molecule, the “fold more potent than 4g” value ([3]; Molt4 cells) was 6 fold, the IC50 ([4]; K562 cells, 24 h) was 70 nM and the “fold more potent than 4g” value [5] was 5 fold.
Work on `COc1ccc(/C=C\c2cc(OC)c(OC)c(OC)c2)cc1O` [CA-4 (1), combretastatin A-4, reference compound] yielded an IC50 ([1]; Mus musculus, L1210, read-out: IC50 L1210) of 2.8 ± 1.1 nM.
`COc1cc(C(=O)c2c(N)sc3ccccc23)cc(OC)c1OC` [Compound 2a, reference compound] was tested, and the IC50 (tubulin) was 1900 ± 100 nM.
Molecule `COc1cc(C(=O)c2c(N)sc3c2CCN(C)C3)cc(OC)c1OC` [Compound 4a] has an IC50 [6] greater than 10000 nM.
For `CCN1CCc2c(sc(N)c2C(=O)c2cc(OC)c(OC)c(OC)c2)C1` [Compound 4b], the IC50 [6] was 1700 to 2100 nM.
With `CCCN1CCc2c(sc(N)c2C(=O)c2cc(OC)c(OC)c(OC)c2)C1` [Compound 4c] the IC50 [6] was greater than 10000 nM.
For `COc1cc(C(=O)c2c(N)sc3c2CCN(Cc2ccccc2)C3)cc(OC)c1OC` [Compound 4d], the IC50 [6] was greater than 10000 nM.
Work on `COc1cc(C(=O)c2c(N)sc3c2CCN(C(C)=O)C3)cc(OC)c1OC` [Compound 4e] yielded an IC50 [6] of 1100 to 3900 nM.
In the case of `CCOC(=O)N1CCc2c(sc(N)c2C(=O)c2cc(OC)c(OC)c(OC)c2)C1` [Compound 4g], the IC50 [6] is reported as 57 to 440 nM, the “Effect on cell cycle distribution” value [2] is reported as “marked increase in the percentage of cells blocked in the G2-M phase” and the IC50 ([4]; Homo sapiens, K562, 24 h) is reported as 80 nM.
With `CCCOC(=O)N1CCc2c(sc(N)c2C(=O)c2cc(OC)c(OC)c(OC)c2)C1` [Compound 4h] the “fold reduction in activity on lengthening the alkyl chain (vs 4g)” value (from here on “fold reduction in activity”) ([1]; L1210 cells) was 10 fold, the “fold reduction in activity” value [7] was 25 fold and the “fold reduction in activity” value ([3]; Molt-4 cells) was 1.5 fold. For the same molecule, the “fold reduction in activity” value [5] was 3 fold.
With `COc1cc(C(=O)c2c(N)sc3c2CCN(C(=O)NC(C)C)C3)cc(OC)c1OC` [Compound 4m] the “Antiproliferative activity (in words)” value [6] was “inactive”.
`CNC(=S)N1CCc2c(sc(N)c2C(=O)c2cc(OC)c(OC)c(OC)c2)C1` [Compound 4s] gave an IC50 [6] of 1600 to 4900 nM.
With `CCNC(=S)N1CCc2c(sc(N)c2C(=O)c2cc(OC)c(OC)c(OC)c2)C1` [Compound 4t] the IC50 [6] was 4800 to 6900 nM.
In the case of `COc1cc(C(=O)c2c(N)sc3c2CCN(C(=S)NC(C)C)C3)cc(OC)c1OC` [Compound 4u], the “Antiproliferative activity (in words)” value [6] is reported as “inactive”.
`COc1cc(C(=O)c2c(N)sc3c2CCN(C(=S)NC2CCCCC2)C3)cc(OC)c1OC` [Compound 4w] gave an IC50 [6] of 730 to 1100 nM.
With `COc1cc(C(=O)c2c(N)sc3cnccc23)cc(OC)c1OC` [Compound 5, 2-amino-3-(3′,4′,5′-trim-ethoxybenzoyl)thieno[2,3-c]pyridine] the “Effect on cell cycle distribution” value [2] was “marked increase in the percentage of cells blocked in the G2-M phase”, the IC50 (tubulin) was 5400 ± 400 nM and the IC50 ([4]; Homo sapiens, K562, 24 h) was 500 nM. The “fold less potent than 2a” value [5] was 13 fold.
